Legend:
Sialidase [1] = target: T1, Sialidase (Clostridium perfringens, UniProt P10481); assay: Non-competitive inhibition of Clostridium perfringens neuraminidase using 4-methylumbelliferyl-alpha-D-N-acetylneuraminic acid sodium salt hydrate as substrate by Dixon plot method
T1 sequence (P10481 whole entry): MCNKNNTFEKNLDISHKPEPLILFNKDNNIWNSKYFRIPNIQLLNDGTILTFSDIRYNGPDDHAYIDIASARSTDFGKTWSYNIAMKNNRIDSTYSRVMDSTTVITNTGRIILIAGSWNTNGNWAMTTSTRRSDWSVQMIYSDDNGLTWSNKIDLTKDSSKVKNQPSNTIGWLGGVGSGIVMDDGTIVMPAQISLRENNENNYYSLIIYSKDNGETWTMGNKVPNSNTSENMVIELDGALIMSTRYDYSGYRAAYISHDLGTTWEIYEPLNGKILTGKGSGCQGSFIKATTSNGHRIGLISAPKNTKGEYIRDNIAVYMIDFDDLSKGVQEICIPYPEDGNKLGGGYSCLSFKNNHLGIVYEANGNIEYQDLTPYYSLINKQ

Sialidase [2] = target: T1, Sialidase; assay: (§1) Inhibition of Clostridium perfringens neuraminidase using 4-methylumbelliferyl-alpha-D-N-acetylneuraminic acid sodium salt hydrate as substrate by fluorimetry
[3] = target: T2, Sialidase (Clostridium perfringens) (UniProt P10481); assay: as §1
T2 sequence (whole entry): T1 sequence (P10481 whole entry)

Row | Compound | Ki (Sialidase [1]) [µM] | IC50 (Sialidase [2]) [µM] | inhibition [3]
1 | CC(C)=CCc1c(O)c(CC=C(C)C)c2occ(-c3ccc(O)cc3)c(=O)c2c1O | 4.29 | 4.04 | Dose-dependent effect
2 | CC(C)=CCc1c(O)c(CC=C(C)C)c2occ(-c3ccc(O)c(O)c3)c(=O)c2c1O | 1.02 | 1.07 | Dose-dependent effect
3 | C=CC(C)(C)C1=Cc2c(c(CC=C(C)C)c3occ(-c4ccc(O)cc4)c(=O)c3c2O)OC1(C)C | 7.27 | 7.9 | Dose-dependent effect
4 | CC(C)=CCc1c2c(c3occ(-c4ccc(O)cc4)c(=O)c3c1O)C=CC(C)(C)O2 [OSAJIN] | 3.21 | 3.06 | Dose-dependent effect
5 | CC(C)=CCc1c(-c2coc3cc(O)cc(O)c3c2=O)cc2c(c1O)OC(C)(C)C=C2 | 53 | 56.8 | Dose-dependent effect
6 | O=c1c(-c2ccc(O)cc2)coc2cc(O)cc(O)c12 [GENISTEIN] |  | 12 | 
7 | C=CC(C)(C)C1=Cc2c(c(CC=C(C)C)c3occ(-c4ccc(O)c(O)c4)c(=O)c3c2O)OC1(C)C | 1.36 | 1.63 | Dose-dependent effect
8 | COc1cc(-c2coc3c(CC=C(C)C)c(O)c(CC=C(C)C)c(O)c3c2=O)ccc1O [FLEMINGSIN] | 3.68 | 3.75 | Dose-dependent effect
9 | CC(C)=CCc1c2c(c(O)c3c(=O)c(-c4ccc(O)c(O)c4)coc13)C=CC(C)(C)O2 [AURICULASIN] | 0.13 | 0.3 | Dose-dependent effect
10 | CC(C)=CCc1cc(-c2coc3cc(O)cc(O)c3c2=O)c(CC=C(C)C)c(O)c1O | 7.86 | 7.85 | Dose-dependent effect
